Inconclusive results and toxic doses are left out. No stated cut-off is given here; in the data, active means T/C of 150% or more; inactive means T/C below 125%.
Test system: L1210 leukemia ip in BDF1 mice, survival T/C
Experiment: NCI In Vivo Anticancer Drug Screen. Data for tumor model L1210 Leukemia (intraperitoneal) in B6D2F1 (BDF1) mice
Settings: endpoint: mean survival time, higher = longer survival
Procedure, shortened: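 Transplantable tumor model; survival measured in treated vs vehicle control mice. Value = treated/control.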

[1] = dose: 100.0 mg/kg/injection, schedule: Q04DX003 (ip), vehicle: saline with Tween-80
[2] = dose: 200.0 mg/kg/injection, schedule: Q04DX003 (ip), vehicle: saline with Tween-80
[3] = dose: 400.0 mg/kg/injection, schedule: Q04DX003 (ip), vehicle: saline with Tween-80
[4] = dose: 50.0 mg/kg/injection, schedule: Q01DX009 (ip), vehicle: Klucel (hydroxypropylcellulose) (HPC)
[5] = dose: 100.0 mg/kg/injection, schedule: Q01DX009 (ip), vehicle: Klucel (hydroxypropylcellulose) (HPC)
[6] = dose: 100.0 mg/kg/injection, schedule: Q04DX003 (ip), vehicle: Klucel (hydroxypropylcellulose) (HPC)
[7] = dose: 200.0 mg/kg/injection, schedule: Q01DX009 (ip), vehicle: Klucel (hydroxypropylcellulose) (HPC)
[8] = dose: 200.0 mg/kg/injection, schedule: Q04DX003 (ip), vehicle: Klucel (hydroxypropylcellulose) (HPC)
[9] = dose: 400.0 mg/kg/injection, schedule: Q04DX003 (ip), vehicle: Klucel (hydroxypropylcellulose) (HPC)
[10] = dose: 25.0 mg/kg/injection, schedule: Q01DX009 (ip), vehicle: Klucel (hydroxypropylcellulose) (HPC)
[11] = dose: 100.0 mg/kg/injection, schedule: Q01DX001 (ip), vehicle: saline
[12] = dose: 100.0 mg/kg/injection, schedule: Q01DX009 (ip), vehicle: saline
[13] = dose: 200.0 mg/kg/injection, schedule: Q01DX001 (ip), vehicle: saline
[14] = dose: 400.0 mg/kg/injection, schedule: Q01DX001 (ip), vehicle: saline
[15] = dose: 100.0 mg/kg/injection, schedule: Q04DX003 (ip), vehicle: saline
[16] = dose: 200.0 mg/kg/injection, schedule: Q04DX003 (ip), vehicle: saline
[17] = dose: 400.0 mg/kg/injection, schedule: Q04DX003 (ip), vehicle: saline
[18] = dose: 200.0 mg/kg/injection, schedule: Q01DX009 (ip), vehicle: saline
[19] = dose: 400.0 mg/kg/injection, schedule: Q01DX009 (ip), vehicle: Klucel (hydroxypropylcellulose) (HPC)

Measured: T/C

Cc1c(Cl)c(C)c(Sc2c(C)c(Cl)c(C)c(Br)c2O)c(O)c1Br
inactive: dose: 100.0 mg/kg/injection, schedule: Q01DX001 (ip), vehicle: other 87 % of control | dose: 100.0 mg/kg/injection, schedule: Q04DX003 (ip), vehicle: other 100 % of control | dose: 200.0 mg/kg/injection, schedule: Q01DX001 (ip), vehicle: other 88 % of control | dose: 200.0 mg/kg/injection, schedule: Q04DX003 (ip), vehicle: other 107 % of control | dose: 400.0 mg/kg/injection, schedule: Q01DX001 (ip), vehicle: other 93 % of control | dose: 400.0 mg/kg/injection, schedule: Q04DX003 (ip), vehicle: other 113 % of control

O=C1c2cccc([N+](=O)[O-])c2C(=O)C1c1ccccn1 (stereo not given)
inactive: [1] 101 % of control | [2] 90 % of control | [3] 101 % of control

CN(C)C(=O)C1Cc2ccccc2CC1C(=O)N(C)C (stereo not given)
inactive: [4] 97 % of control | [5] 97 % of control | [6] 101 % of control | [7] 101 % of control | [8] 102 % of control | [9] 97 % of control

CCOC(=O)NCC(CCN1CCCC1)(c1cccc2ccccc12)C(C)C (stereo not given)
inactive: dose: 12.5 mg/kg/injection, schedule: Q01DX009 (ip), vehicle: Klucel (hydroxypropylcellulose) (HPC) 104 % of control | dose: 12.5 mg/kg/injection, schedule: Q04DX003 (ip), vehicle: Klucel (hydroxypropylcellulose) (HPC) 87 % of control | [10] 102 % of control | [4] 101 % of control | dose: 50.0 mg/kg/injection, schedule: Q04DX003 (ip), vehicle: Klucel (hydroxypropylcellulose) (HPC) 95 % of control

CSC1C(OC(=O)c2ccccc2)C(COC(=O)c2ccccc2)OC1n1cnc2ncnc(NC(=O)c3ccccc3)c21 (stereo not given)
inactive: dose: 100.0 mg/kg/injection, schedule: Q01DX005 (ip), vehicle: saline 100 % of control | dose: 200.0 mg/kg/injection, schedule: Q01DX005 (ip), vehicle: saline 92 % of control

Nc1c(N=Nc2cccc([N+](=O)[O-])c2)c(S(=O)(=O)O)cc2cc(S(=O)(=O)O)c(N=Nc3ccc(-c4ccc(N=Nc5cc(S(=O)(=O)O)c6ccccc6c5O)cc4)cc3)c(O)c12
inactive: dose: 50.0 mg/kg/injection, schedule: Q01DX010 (ip), vehicle: saline 94 % of control | dose: 100.0 mg/kg/injection, schedule: Q01DX010 (ip), vehicle: saline 100 % of control | dose: 200.0 mg/kg/injection, schedule: Q01DX010 (ip), vehicle: saline 92 % of control

CC(C)c1ccc(N2C(=O)CSC2=S)cc1
inactive: dose: 100.0 mg/kg/injection, schedule: Q04DX002 (ip), vehicle: saline with Tween-80 97 % of control | dose: 200.0 mg/kg/injection, schedule: Q04DX002 (ip), vehicle: saline with Tween-80 87 % of control

CCOC(=O)/C(C#N)=C(/C)C(C)C(=O)OCC (stereo not given)
inactive: [11] 100 % of control | [12] 102 % of control | [13] 100 % of control | [14] 96 % of control

Cc1cccc(C(C)(C)C)c1O
inactive: [1] 102 % of control | [2] 91 % of control | [3] 94 % of control

O=S(=O)(c1ccccc1)C(I)I
inactive: dose: 10.0 mg/kg/injection, schedule: Q04DX002 (ip), vehicle: Klucel (hydroxypropylcellulose) (HPC) 96 % of control | dose: 20.0 mg/kg/injection, schedule: Q04DX002 (ip), vehicle: Klucel (hydroxypropylcellulose) (HPC) 94 % of control | dose: 40.0 mg/kg/injection, schedule: Q04DX002 (ip), vehicle: Klucel (hydroxypropylcellulose) (HPC) 100 % of control

COc1ccc(NC(=S)NN)cc1
inactive: dose: 25.0 mg/kg/injection, schedule: Q01DX009 (ip), vehicle: saline with Tween-80 103 % of control | dose: 50.0 mg/kg/injection, schedule: Q01DX009 (ip), vehicle: saline with Tween-80 89 % of control | dose: 100.0 mg/kg/injection, schedule: Q01DX009 (ip), vehicle: saline with Tween-80 95 % of control

CC(=O)CC(=O)Nc1cc(C(F)(F)F)ccc1Cl
inactive: [11] 97 % of control | [13] 101 % of control | [14] 101 % of control

OCCN=C1c2cc(Cl)ccc2-c2c(Cl)cc(Cl)cc21
inactive: [6] 103 % of control | [8] 97 % of control | [9] 87 % of control

CC(=O)SCCCCl
inactive: [15] 105 % of control | [16] 101 % of control | [17] 102 % of control

COc1cc(NS(C)(=O)=O)ccc1N
inactive: [12] 103 % of control | [15] 107 % of control | [18] 98 % of control | [16] 103 % of control | [17] 102 % of control

CCCCS(=O)(=O)Oc1ccc(N)c([N+](=O)[O-])c1
inactive: [1] 101 % of control | [2] 101 % of control | [3] 88 % of control

O=C(/C=C/c1ccc2c(c1)OCO2)c1ccc(OCc2ccccc2)cc1
inactive: dose: 25.0 mg/kg/injection, schedule: Q04DX002 (ip), vehicle: saline 111 % of control | dose: 50.0 mg/kg/injection, schedule: Q04DX002 (ip), vehicle: saline 108 % of control | dose: 100.0 mg/kg/injection, schedule: Q04DX002 (ip), vehicle: saline 118 % of control | dose: 200.0 mg/kg/injection, schedule: Q04DX002 (ip), vehicle: saline 96 % of control | dose: 400.0 mg/kg/injection, schedule: Q04DX002 (ip), vehicle: saline 92 % of control

c1ccc2ocnc2c1
inactive: [6] 94 % of control | [8] 96 % of control | [9] 113 % of control

C=CC/C=C/C
inactive: dose: 100.0 mg/kg/injection, schedule: Q01DX001 (ip), vehicle: Klucel (hydroxypropylcellulose) (HPC) 93 % of control | dose: 200.0 mg/kg/injection, schedule: Q01DX001 (ip), vehicle: Klucel (hydroxypropylcellulose) (HPC) 109 % of control | dose: 400.0 mg/kg/injection, schedule: Q01DX001 (ip), vehicle: Klucel (hydroxypropylcellulose) (HPC) 100 % of control

Nc1ccc(CS(=O)(=O)O)cc1
inactive: [12] 112 % of control | [18] 101 % of control | dose: 400.0 mg/kg/injection, schedule: Q01DX009 (ip), vehicle: saline 101 % of control

CCOc1ccn(C2OC(CI)C(OC3OC(COC(C)=O)C(OC(C)=O)C(OC(C)=O)C3OC(C)=O)C(OC(C)=O)C2OC(C)=O)c(=O)n1 (stereo not given)
inactive: dose: 22.5 mg/kg/injection, schedule: Q01DX001 (ip), vehicle: carboxymethylcellulose (CMC) 100 % of control | dose: 45.0 mg/kg/injection, schedule: Q01DX001 (ip), vehicle: carboxymethylcellulose (CMC) 100 % of control | dose: 90.0 mg/kg/injection, schedule: Q01DX001 (ip), vehicle: carboxymethylcellulose (CMC) 97 % of control | dose: 180.0 mg/kg/injection, schedule: Q01DX001 (ip), vehicle: carboxymethylcellulose (CMC) 103 % of control

Nc1ccnc(SCCCCc2ccccc2)n1
inactive: dose: 100.0 mg/kg/injection, schedule: Q04DX003 (ip), vehicle: gum acacia 90 % of control | dose: 200.0 mg/kg/injection, schedule: Q04DX003 (ip), vehicle: gum acacia 93 % of control | dose: 400.0 mg/kg/injection, schedule: Q04DX003 (ip), vehicle: gum acacia 90 % of control

C=CC1(CCC(C)C)C(=O)NC(=O)NC1=O
inactive: dose: 75.0 mg/kg/injection, schedule: Q01DX001 (ip), vehicle: saline 91 % of control | dose: 150.0 mg/kg/injection, schedule: Q01DX001 (ip), vehicle: saline 105 % of control | dose: 300.0 mg/kg/injection, schedule: Q01DX001 (ip), vehicle: saline 98 % of control

CCNCCNc1ccc(CO)c2sc3cc(Cl)ccc3c(=O)c12
inactive: [10] 99 % of control | [4] 100 % of control

O=C(Nc1ccccc1F)Nc1cc([N+](=O)[O-])ccc1Cl
inactive: [5] 87 % of control | [7] 94 % of control | [19] 87 % of control

CCCCCCCCCCCCCCCCCC(=O)N/N=C/c1cc(OC)ccc1OC
inactive: [5] 89 % of control | [7] 86 % of control | [19] 96 % of control

C[S+](C)Cc1ccccc1
inactive: dose: 50.0 mg/kg/injection, schedule: Q04DX003 (ip), vehicle: saline 96 % of control | dose: 100.0 mg/kg/injection, schedule: Q01DX009 (ip), vehicle: other 93 % of control | [15] 100 % of control

CN(C)C(=O)C1C2CCC(C2)C1C(=O)N(C)C (stereo not given)
inactive: [15] 103 % of control | [16] 96 % of control | [17] 100 % of control

— PubChem BioAssay AID248 (DTP/NCI, 2004)
